Experimental data from paper PMC7004565, “Nucleotide inhibition of the pancreatic ATP-sensitive K^+ channel explored with patch-clamp fluorometry” (eLife, 2020).
pEC50, pIC50: −log10 of the molar value. Where “and” joins values, the source holds several entries; their conditions need not be identical. Equal entries are not always repeated.

Assays:
Kir6.2*,C166S-GFP + SUR1 = Kir6.2*,C166S-GFP + SUR1 (Homo sapiens, UniProt Q14654, C166S); test: FRET (ANAP quenching) nucleotide binding in unroofed membranes; parameters: ANAP labelling is specific and only full-length Kir6.2 is expressed at the cell membrane; expressed in transfected cells; host or cells: HEK-293T; conditions: Hill fit
Description: To measure nucleotide binding, cells transfected with Kir6.2*-GFP + SUR1 were briefly sonicated, leaving behind unroofed plasma membrane fragments ([Heuser, 2000]; [Zagotta et al., 2016]; [Puljung et al., 2019]) containing ANAP-labelled KATP channels with the intracellular nucleotide-binding sites exposed to the bath solution. The sample was excited with a 385 nm LED and emitted fluorescence from the membrane fragments was passed through a spectrometer, allowing us to separate ANAP, GFP, and TNP-ATP fluorescence by peak wavelength (Figure 1E,F). As expected from FRET, increasing the concentration of TNP-ATP caused a decrement in the ANAP peak at 472 nm and a concomitant increase in the TNP-ATP peak at 561 nm (Figure 1F). We used the quenching of the ANAP peak as a direct measure of TNP-ATP binding as this signal was specific to KATP. In contrast, the peak TNP-ATP fluorescence may include contributions from both specific and non-specific nucleotide binding, as well as direct excitation of TNP-ATP in solution by the 385 nm excitation light. Due to the sharp cut-off of the GFP emission spectrum at shorter wavelengths, our measurements of peak ANAP fluorescence were unaffected by the presence of the GFP tag on Kir6.2.
Epifluorescence imaging and spectroscopy were performed using a Nikon Eclipse TE2000-U microscope with a 60x water immersion objective (Plan Apo VC, NA = 1.2, Nikon; Kingston upon Thames, UK) or a 100x oil immersion objective (Nikon, Apo TIRF, NA = 1.49). […] Fluorescence spectra were collected by exciting ANAP as above but using a 400 nm long-pass emission filter (ThorLabs), then passing emitted light through an IsoPlane 160 Spectrometer (Princeton Instruments; Trenton, NJ) with a 300 grooves mm^-1 grating. […]
Unroofed membranes were prepared as described previously ([Heuser, 2000]; [Zagotta et al., 2016]; [Puljung et al., 2019]). […] Unroofed membrane fragments were nearly invisible in bright-field images and identified by their GFP and ANAP fluorescence. […]
Fluorescence spectra were collected as described above. […]

Kir6.2-GFP (no SUR1) = biological target: T1, Kir6.2-GFP (no SUR1) (Homo sapiens, UniProt Q14654); test: Current inhibition in excised inside-out patches; format: biochemical; conditions: excised inside-out patches, no SUR1, Mg2+-free, Hill fit
T1 construct: ANAP labelling is specific and only full-length Kir6.2 is expressed at the cell membrane; expressed in transfected cells; host or cells: HEK-293T
T1 sequence (Q14654 1-390): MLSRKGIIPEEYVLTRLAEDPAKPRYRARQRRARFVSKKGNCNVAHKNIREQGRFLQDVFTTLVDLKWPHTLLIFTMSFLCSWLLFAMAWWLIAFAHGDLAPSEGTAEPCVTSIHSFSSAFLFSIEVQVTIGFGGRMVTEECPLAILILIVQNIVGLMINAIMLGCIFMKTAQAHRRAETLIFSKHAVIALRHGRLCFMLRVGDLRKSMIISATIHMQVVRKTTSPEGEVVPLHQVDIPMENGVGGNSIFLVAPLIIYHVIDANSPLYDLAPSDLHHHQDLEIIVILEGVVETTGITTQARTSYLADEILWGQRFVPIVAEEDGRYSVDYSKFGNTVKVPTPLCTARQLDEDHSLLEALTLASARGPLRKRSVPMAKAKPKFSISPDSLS
Protocol: Currents were measured from patches from cells expressing KATP that were excised in the absence of Mg^2+. Under such conditions, nucleotides can bind to both sites on SUR1, but no activation occurs, allowing inhibitory currents to be measured in isolation ([Gribble et al., 1998]; [Ueda et al., 1999]; [Puljung et al., 2019]).

Sequence of Kir6.2*,C166S-GFP + SUR1 (Q14654 whole entry C166S, the tested form may be a part): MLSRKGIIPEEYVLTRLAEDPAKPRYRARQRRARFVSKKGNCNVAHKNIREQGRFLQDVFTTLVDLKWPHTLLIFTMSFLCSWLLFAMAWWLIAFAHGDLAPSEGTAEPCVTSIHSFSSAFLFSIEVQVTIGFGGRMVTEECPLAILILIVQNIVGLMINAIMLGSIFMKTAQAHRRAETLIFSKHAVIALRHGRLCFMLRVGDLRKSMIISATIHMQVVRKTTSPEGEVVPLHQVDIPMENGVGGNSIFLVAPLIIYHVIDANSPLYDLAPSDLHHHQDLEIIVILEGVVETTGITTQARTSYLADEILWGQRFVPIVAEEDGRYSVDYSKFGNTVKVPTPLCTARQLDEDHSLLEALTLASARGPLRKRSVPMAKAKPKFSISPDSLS
Sequence of Kir6.2*,C166S-GFP + SUR1 (Q09428 whole entry partner, the tested form may be a part): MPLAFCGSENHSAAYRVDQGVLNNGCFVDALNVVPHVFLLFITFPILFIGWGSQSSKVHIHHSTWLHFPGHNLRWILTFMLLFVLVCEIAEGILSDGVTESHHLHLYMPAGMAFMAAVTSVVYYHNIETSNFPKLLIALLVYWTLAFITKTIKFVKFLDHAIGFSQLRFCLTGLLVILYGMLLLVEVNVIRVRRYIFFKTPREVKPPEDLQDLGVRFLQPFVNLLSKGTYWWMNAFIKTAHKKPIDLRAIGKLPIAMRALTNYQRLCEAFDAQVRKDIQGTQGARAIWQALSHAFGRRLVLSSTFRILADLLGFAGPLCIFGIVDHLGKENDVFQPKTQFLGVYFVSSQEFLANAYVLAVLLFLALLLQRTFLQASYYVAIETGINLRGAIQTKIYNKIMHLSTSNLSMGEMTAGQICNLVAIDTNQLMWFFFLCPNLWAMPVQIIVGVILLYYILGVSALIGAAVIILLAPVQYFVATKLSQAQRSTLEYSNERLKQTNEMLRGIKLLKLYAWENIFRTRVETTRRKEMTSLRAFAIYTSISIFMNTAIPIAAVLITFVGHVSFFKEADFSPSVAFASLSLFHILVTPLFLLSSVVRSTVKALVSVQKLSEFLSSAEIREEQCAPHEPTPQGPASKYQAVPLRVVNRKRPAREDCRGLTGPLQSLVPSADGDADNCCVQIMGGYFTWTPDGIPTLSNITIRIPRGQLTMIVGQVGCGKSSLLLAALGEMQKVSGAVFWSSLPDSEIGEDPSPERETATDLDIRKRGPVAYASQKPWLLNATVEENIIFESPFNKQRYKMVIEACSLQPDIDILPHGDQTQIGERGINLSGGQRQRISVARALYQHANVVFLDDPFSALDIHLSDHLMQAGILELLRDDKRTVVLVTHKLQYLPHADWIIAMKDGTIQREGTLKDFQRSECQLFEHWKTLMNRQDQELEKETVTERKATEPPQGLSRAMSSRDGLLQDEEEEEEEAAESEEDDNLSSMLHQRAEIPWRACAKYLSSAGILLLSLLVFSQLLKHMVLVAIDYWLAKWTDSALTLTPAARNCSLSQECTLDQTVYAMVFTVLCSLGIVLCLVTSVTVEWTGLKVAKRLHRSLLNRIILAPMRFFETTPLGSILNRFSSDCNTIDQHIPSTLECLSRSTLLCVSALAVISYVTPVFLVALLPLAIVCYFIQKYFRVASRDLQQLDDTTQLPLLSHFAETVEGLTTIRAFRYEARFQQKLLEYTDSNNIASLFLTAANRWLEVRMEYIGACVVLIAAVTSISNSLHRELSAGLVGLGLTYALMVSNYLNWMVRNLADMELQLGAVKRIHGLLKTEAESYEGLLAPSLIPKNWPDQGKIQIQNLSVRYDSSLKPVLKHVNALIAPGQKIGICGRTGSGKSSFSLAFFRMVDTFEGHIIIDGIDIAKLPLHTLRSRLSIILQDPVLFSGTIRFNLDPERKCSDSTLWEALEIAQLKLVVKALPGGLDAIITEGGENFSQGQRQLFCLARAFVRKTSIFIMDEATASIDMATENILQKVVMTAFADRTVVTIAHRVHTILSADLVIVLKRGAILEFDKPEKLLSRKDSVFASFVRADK

**Q.** Which results are given for `Nc1ncnc2c1ncn2[C@@H]1O[C@H](COP(=O)(O)OP(=O)(O)OP(=O)(O)O)[C@H]2OC3(O[C@H]21)C([N+](=O)[O-])=CC(=[N+]([O-])[O-])C=C3[N+](=O)[O-]` (some centres unmarked) [TNP-ATP, trinitrophenyl-ATP]?
**A.** h (Hill coefficient) fluorescence quenching (Kir6.2*,C166S-GFP + SUR1): 0.92; Emax (Kir6.2*,C166S-GFP + SUR1; fraction, read-out: Emax fluorescence quenching): 96%; pEC50 (Kir6.2*,C166S-GFP + SUR1; n = 12, read-out: EC50 fluorescence quenching): 4.49 and 4.50; pIC50 (Kir6.2-GFP (no SUR1); IC50 current inhibition): 3.56; h (Hill coefficient) current inhibition (Kir6.2-GFP (no SUR1)): 1.09
